We go through six compounds from ChEMBL document CHEMBL4340511, “22-Oxocholestane oximes as potential anti-inflammatory drug candidates” (Eur J Med Chem, 2019).

Holding throughout (format): functional, organism-based
The subject of assay [1] is Mus musculus. Description: Antiinflammatory activity against TPA-induced ear edema in CD1 mouse assessed as reduction in weight of ear punches at 125 ug/ear, each surface administered topically for 15 mins prior to TPA challenge and measured after 6 hrs.
Assay [2] concerns Mus musculus. Nature of the assay: Antiinflammatory activity against TPA-induced ear edema in CD1 mouse assessed as reduction in ear edema at 125 ug/ear, each surface administered topically for 15 mins prior to TPA challenge and measured after 6 hrs.
Assay [3] relates to Mus musculus. Nature of the assay: Antiinflammatory activity in CD1 mouse model of TPA-induced ear edema assessed as decrease in COX-2 expression at 125 ug/ear, each surface administered topically for 15 mins prior to TPA challenge and measured after 6 hrs by qRT-PCR analysis. Background: Quantitative PCR measures a nucleic acid by following its amplification.
Assay [4] relates to Mus musculus. Description: Antiinflammatory activity in CD1 mouse model of TPA-induced ear edema assessed as decrease in TNFalpha expression at 125 ug/ear, each surface administered topically for 15 mins prior to TPA challenge and measured after 6 hrs by qRT-PCR analysis.
Assay [5] concerns Mus musculus. Description: Antiinflammatory activity in CD1 mouse model of TPA-induced ear edema assessed as decrease in IL-6 expression at 125 ug/ear, each surface administered topically for 15 mins prior to TPA challenge and measured after 6 hrs by qRT-PCR analysis.
Assay [6] deals with Mus musculus. Nature of the assay: Antiinflammatory activity in CD1 mouse model of TPA-induced ear edema assessed as decrease in MIF expression at 125 ug/ear, each surface administered topically for 15 mins prior to TPA challenge and measured after 6 hrs by qRT-PCR analysis.
The subject of assay [7] is Mus musculus. Nature of the assay: Antiinflammatory activity in CD1 mouse model of TPA-induced ear edema assessed as decrease in IFNgamma expression at 125 ug/ear, each surface administered topically for 15 mins prior to TPA challenge and measured after 6 hrs by qRT-PCR analysis.
Assay [8] concerns Mus musculus. Description: Antiinflammatory activity in CD1 mouse assessed as reduction in TPA-induced ear flushing at 125 ug/ear, each surface administered topically for 15 mins prior to TPA challenge and measured after 6 hrs.
For assay [9], the system named is Mus musculus. Description: Antiinflammatory activity against TPA-induced ear edema in CD1 mouse assessed as reduction in weight of ear punches at 225 ug/ear, each surface administered topically for 15 mins prior to TPA challenge and measured after 6 hrs.
Assay [10] concerns Mus musculus. Description: Antiinflammatory activity against TPA-induced ear edema in CD1 mouse assessed as reduction in ear edema at 225 ug/ear, each surface administered topically for 15 mins prior to TPA challenge and measured after 6 hrs.
Assay [11] deals with Mus musculus. Description: Antiinflammatory activity in CD1 mouse model of TPA-induced ear edema assessed as decrease in COX-2 expression at 250 ug/ear, each surface administered topically for 15 mins prior to TPA challenge and measured after 6 hrs by qRT-PCR analysis.
In assay [12] the test system is Mus musculus. Nature of the assay: Antiinflammatory activity in CD1 mouse model of TPA-induced ear edema assessed as decrease in TNFalpha expression at 250 ug/ear, each surface administered topically for 15 mins prior to TPA challenge and measured after 6 hrs by qRT-PCR analysis.
Assay [13] has as its system Mus musculus. Description: Antiinflammatory activity in CD1 mouse model of TPA-induced ear edema assessed as decrease in IL-6 expression at 250 ug/ear, each surface administered topically for 15 mins prior to TPA challenge and measured after 6 hrs by qRT-PCR analysis.
Assay [14] has as its system Mus musculus. Nature of the assay: Antiinflammatory activity in CD1 mouse model of TPA-induced ear edema assessed as decrease in MIF expression at 250 ug/ear, each surface administered topically for 15 mins prior to TPA challenge and measured after 6 hrs by qRT-PCR analysis.
The test system of assay [15] is Mus musculus. Description: Antiinflammatory activity in CD1 mouse model of TPA-induced ear edema assessed as decrease in IFNgamma expression at 250 ug/ear, each surface administered topically for 15 mins prior to TPA challenge and measured after 6 hrs by qRT-PCR analysis.
For assay [16], the system named is Mus musculus. Description: Antiinflammatory activity in CD1 mouse assessed as reduction in TPA-induced ear flushing at 250 ug/ear, each surface administered topically for 15 mins prior to TPA challenge and measured after 6 hrs.

Active and inactive are the calls of the source. The rule behind the calls is not given here.

For `CC(=O)O[C@H]1C[C@H]2[C@@H]3CC=C4C[C@@H](O)CC[C@]4(C)[C@H]3CC[C@]2(C)[C@H]1[C@H](C)C(=O)CC/C(C)=N/O`, the outcome with Mus musculus [1], in the assay with Mus musculus [2], in the assay with Mus musculus [3], in the assay with Mus musculus [4], in the assay with Mus musculus [5] and with Mus musculus [6] was Active. Also, the result with Mus musculus [7] and with Mus musculus [8] was inactive.

With `CC(=O)O[C@H]1CC[C@@]2(C)C(=CC[C@H]3[C@@H]4C[C@H](OC(C)=O)[C@H]([C@H](C)C(=O)CC[C@H](C)/C=N/O)[C@@]4(C)CC[C@@H]32)C1`, the result in the assay with Mus musculus [1], in the assay with Mus musculus [2], with Mus musculus [3], with Mus musculus [4], in the assay on Mus musculus [5] and with Mus musculus [6] was Active. Also, the result in the assay on Mus musculus [7] and in the assay with Mus musculus [8] was inactive.

For the compound `CC(=O)O[C@H]1C[C@H]2[C@@H]3CC=C4C[C@@H](O)CC[C@]4(C)[C@H]3CC[C@]2(C)[C@H]1[C@H](C)C(=O)CC[C@@H](C)/C=N/O`, the outcome in the assay on Mus musculus [1] was inactive.

For `CC(=O)O[C@H]1CC[C@@]2(C)C(=CC[C@H]3[C@@H]4C[C@H](OC(C)=O)[C@H]([C@H](C)C(=O)CC[C@@H](C)/C=N/O)[C@@]4(C)CC[C@@H]32)C1`, the result in the assay on Mus musculus [1] was inactive.

For the compound `CC(=O)O[C@H]1C[C@H]2[C@@H]3CC=C4C[C@@H](O)CC[C@]4(C)[C@H]3CC[C@]2(C)[C@H]1[C@H](C)C(=O)CC[C@H](C)/C=N/O`, the outcome in the assay with Mus musculus [1], in the assay on Mus musculus [2], in the assay with Mus musculus [3], in the assay with Mus musculus [4], with Mus musculus [5] and with Mus musculus [6] was Active. In addition, the outcome in the assay with Mus musculus [7] and in the assay with Mus musculus [8] was inactive.

For the compound `C[C@@H]1C[C@H]2[C@@H]3CCC4=CC(=O)C=C[C@]4(C)[C@@]3(F)[C@@H](O)C[C@]2(C)[C@@]1(O)C(=O)CO`, the outcome in the assay with Mus musculus [9], in the assay with Mus musculus [10], with Mus musculus [11], in the assay with Mus musculus [12], in the assay with Mus musculus [13] and with Mus musculus [14] was Active. The outcome in the assay on Mus musculus [15] and in the assay with Mus musculus [16] was inactive.
